Patent publication US20140272000A1, “Liquids and Foodstuffs Containing beta-hydroxy-beta-methylbutyrate (HMB) in the Free Acid Form and Methods of Manufacturing or Producing the Same” (Metabolic Technologies, Inc., priority 2013, published 2014)

Legend:
Format in all cases: physicochemical
[1] = Stability of product composition (physical appearance) with the addition of HMB, free acid and calcium salt forms; settings: Ensure Clear, two flavors, 1 g CaHMB or 0.8 g HMB free acid in 40 ml
Procedure: • 1. N=2 (Two flavors of a commercially available ready-to-drink soluble-protein product; Ensure Clear, pH approximately 2.74) • 2. Label the glass bottles A1-A3 and B1-B3. The labels correspond to the following conditions:
• 3. To bottles A2 and B2 1 g of CaHMB MTI 1208-100-02 TSI 12070630 added. • 4. To bottles A3 and B3 0.8 g of HMB Free Acid MTI 1103-100-09 Lot 11010084 added. • 5. 40 ml of Peach flavored product added to the bottles labeled A1-A3. • 6. 40 ml of Blueberry Pomegranate flavored product added to the bottles labeled B1-B3. • 7. Bottles were sealed with rubber caps and crimped shut. Then, they were mixed well and placed on shelf. • 8. Appearances were noted and photos were taken daily (bottles were not disturbed).
Table 2 reports the physical appearance of the ready-to-drink soluble-protein product (n=2) following the addition of CaHMB or HMB free acid and mixing. HMB was not added to the control bottles. Day 1 was recorded after initial mixing.

[2] = General observation on addition of HMB forms to liquids
[3] = Long term stability (appearance) in soluble-protein drinks; settings: 42 days; ISOPURE protein drink, GNC protein juice, Gatorade Recover, Spartos protein water; 250 mg CaHMB or 200 mg HMB FA in 40 ml
Procedure: • 1. Rinse 12 glass bottles with ethanol and let air dry overnight. • 2. Label the glass bottles A1-A3, B1-B3, C1-C3 and D1-D3. The labels correspond to the following conditions:
• 3. To bottles A2-D2 CaHMB MTI 1208-100-02 TSI 12070630 was used. • 4. To bottles A3-D3 HMB Free Acid MTI 1103-100-09 Lot 11010084 was used. • 5. Add 40 ml of ISOPURE protein drink to A1-A3, 40 ml of GNC protein juice to B1-B3, 40 ml Gatorade Recover to C1-C3, and 40 ml Spartos protein water to D1-D3. • 6. Flush with nitrogen and seal the bottles with rubber caps and metal clamp caps. • 7. Mix well. • 8. Take photo of bottles A1-A3, B1-B3, C1-C3, and D1-D3 every Friday. The photos appear in FIG. 2a-2d. The following tables 6-9 provide the nutritional information for each of the liquids tested (ISOPURE, GNC Protein Juice, Gatorade G3-Recover, and Spartos protein water.)

[4] = Stability of HMB-acid at various concentrations in soluble protein (ISOPURE protein drink) over 120 days, HPLC
Procedure: This experiment was designed to observe the stability of HMB-acid at various concentrations in soluble protein over 120 days.
To analyze the stability of HMB free acid in the soluble protein (ISOPURE protein drink, Natures Best®, Hauppauge, N.Y.), different concentrations of HMB free acid were added to the recommended serving size of ISOPURE protein drink. The three concentrations were 300 mg/240 ml, 1000 mg/240 ml, and 3000 mg/240 ml. HMB free acid was measured for each solution using HPLC at 5 different time points: 0, 30, 60, 90, and 120 d. HMB free acid used was MTI 1301-100-03 (Lot 120111036). ISOPURE protein drink used was Lot 1212111132310. ISOPURE protein drink has a pH of approximately 2.54. All glassware and supplies used were autoclaved in preparation of the three different concentrations of HMB free acid in ISOPURE protein drink for the 5 different time points. Materials to be autoclaved were as follows: glass bottles, rubber and metal seals, pipette tips, and graduated cylinder. Autoclave Method #1 for dry goods in Building 3 of ISU Research Park was used.
• For bottles in group A, 60 mg of HMBFA into each of the five bottles was added, and then 48 ml of ISOPURE protein drink was added. The HMBFA concentration was 1.25 mg/ml. • For bottles in group B 200 mg of HMBFA into each of the five bottles was added, and then 48 ml of ISOPURE protein drink was added. The HMBFA concentration was 4.16 mg/ml. • For bottles in group C, 600 mg of HMBFA into each of the five bottles was, and then 48 ml of ISOPURE protein drink was added.
Each sample bottle was flushed with nitrogen and then the top of the bottle was sealed with rubber caps, crimped shut and mix well. • One bottle of each concentration was tested for HMB using SOP 113-04 HMB (modified standard curve), at Time 0, 30, 60, 90, and 120 d.
To prepare the samples for testing, 0.5 ml of the sample was transferred to a microcentrifuge tube in quadruplet. Then 0.25 ml of KIV internal standard added to standards and three of each sample set. Finally, 0.25 ml 0.2M phosphate buffer was added to the three samples with KIV internal standard and 0.5 ml 0.2M phosphate buffer to the samples not containing KIV.
The samples were considered stable with a ±5% of expected change HMB concentration over the four months with an allowable ±3% analytical variation. A linear regression was conducted on the data as a secondary measure of stability.

[5] = Day 1 (after initial mixing), pH approximately 2.74

SMILES	Physical appearance [1, 5]	Physical appearance ([1]; Day 7, bottles not disturbed)	Physical appearance ([1]; Day 14, bottles not disturbed)	Physical appearance ([1]; Day 21, bottles not disturbed)	Changes in the physical appearance on addition ([2]; commercially available soluble-protein containing ready-to-drink products)	Appearance of the liquids [3]	Decrease in HMB free acid, of the expected amount ([4]; 300 mg/serving of soluble protein, 120 days (FIG. 3))	Linear decrease over time (linear regression) ([4]; 300 mg/serving, 120 days, p<0.05)	Decrease in HMB free acid, of the expected amount ([4]; 1000 mg/serving of soluble protein, 120 days (FIG. 4))	Linear decrease over time (linear regression) ([4]; 1000 mg/serving, 120 days, p<0.05)	Decrease in HMB free acid, of the expected amount ([4]; 3000 mg/serving of soluble protein, 120 days (FIG. 5))	Linear decrease over time (linear regression) ([4]; 3000 mg/serving, 120 days, p<0.05)	Stability in a drink containing soluble protein ([4]; room temperature, 120 days)	Changes in HMB concentration over time ([4]; three concentrations (300, 1000, 3000 mg/serving) in ISOPURE, 120 d)	Linear decrease over time (linear regression) ([4]; three concentrations in ISOPURE, 120 d, p>0.05)	Going into solution when added to a liquid ([2]; added to a liquid, slight shaking)
CC(C)(O)CC(=O)[O-].CC(C)(O)CC(=O)[O-].[Ca+2] [CaHMB, reference compound]	Cloudy	Defined Separation	Defined Separation w/Particulates	Defined Separation w/Particulates	sedimentation and clumping	cloudy and contain precipitate	–	–	–	–	–	–	–	–	–	–
CC(C)(O)CC(=O)O [HMB free acid, β-Hydroxy-β-methylbutyrate]	Semi-Clear	Semi-Clear	Semi-Clear	Semi-Clear	–	clear and precipitate-free	less than 8%	no significant linear decrease	less than 8%	no significant linear decrease	less than 8%	no significant linear decrease	remaining stable	less than 8.0%	no significant linear decrease	goes into solution almost instantly
